We go through 10 molecules from patent US20130115171A1, “NAV1.7-RELATED ASSAYS” (priority 2011, published 2013).

Entries after “also recorded” stand apart in the source; their conditions may differ. Like-named read-outs stand apart in the source and are kept apart here. A value given as a limit tells only on which side of the number the result lay.

As a reminder, the IC50 is the concentration at which inhibition is half-maximal.

One data set concerns male rats. The note with it: rat, in vivo. The method, then: Veratridine was injected intra-plantar at 30 micrograms.
Known preclinical and clinical analgesics were tested to see if they could prevent veratridine-induced behaviors.

The subject of the next data set is male CD1 mice. Type of data set: in vivo, mouse.
The test system of data set [1] is NaV1.7. Type of data set: in vivo, mouse. The note with it: for Flinching response to paw injection: one microgram. An excerpt:
Activation of one, some, or all of the nine sodium channel isoforms might produce painful behaviors. […] All behavioral experiments were done with the observer blinded as to the mouse genotype or treatment.

For another data set, the target named is NaV1.3 (Rattus norvegicus, UniProt P08104). The note with it: read-out: TTX IC50; cited from earlier work.
Another data set deals with NaV1.4 (Rattus norvegicus, UniProt P15390). The following applies: read-out: TTX IC50; cited from earlier work.
The target of a further data set is NaV1.6 (Rattus norvegicus, UniProt O88420). The note with it: read-out: TTX IC50; cited from earlier work.
In data set [2] the target is NaV1.7 (Rattus norvegicus, UniProt O08562). The note with it: read-out: TTX IC50; cited from earlier work.
The target of another data set is NaV1.8 (Rattus norvegicus, UniProt Q62968). The note with it: read-out: TTX IC50; cited from earlier work.
Another data set addresses hNaV1.7 (Homo sapiens, UniProt Q15858).

hNaV1.7, sequence (Q15858 whole entry): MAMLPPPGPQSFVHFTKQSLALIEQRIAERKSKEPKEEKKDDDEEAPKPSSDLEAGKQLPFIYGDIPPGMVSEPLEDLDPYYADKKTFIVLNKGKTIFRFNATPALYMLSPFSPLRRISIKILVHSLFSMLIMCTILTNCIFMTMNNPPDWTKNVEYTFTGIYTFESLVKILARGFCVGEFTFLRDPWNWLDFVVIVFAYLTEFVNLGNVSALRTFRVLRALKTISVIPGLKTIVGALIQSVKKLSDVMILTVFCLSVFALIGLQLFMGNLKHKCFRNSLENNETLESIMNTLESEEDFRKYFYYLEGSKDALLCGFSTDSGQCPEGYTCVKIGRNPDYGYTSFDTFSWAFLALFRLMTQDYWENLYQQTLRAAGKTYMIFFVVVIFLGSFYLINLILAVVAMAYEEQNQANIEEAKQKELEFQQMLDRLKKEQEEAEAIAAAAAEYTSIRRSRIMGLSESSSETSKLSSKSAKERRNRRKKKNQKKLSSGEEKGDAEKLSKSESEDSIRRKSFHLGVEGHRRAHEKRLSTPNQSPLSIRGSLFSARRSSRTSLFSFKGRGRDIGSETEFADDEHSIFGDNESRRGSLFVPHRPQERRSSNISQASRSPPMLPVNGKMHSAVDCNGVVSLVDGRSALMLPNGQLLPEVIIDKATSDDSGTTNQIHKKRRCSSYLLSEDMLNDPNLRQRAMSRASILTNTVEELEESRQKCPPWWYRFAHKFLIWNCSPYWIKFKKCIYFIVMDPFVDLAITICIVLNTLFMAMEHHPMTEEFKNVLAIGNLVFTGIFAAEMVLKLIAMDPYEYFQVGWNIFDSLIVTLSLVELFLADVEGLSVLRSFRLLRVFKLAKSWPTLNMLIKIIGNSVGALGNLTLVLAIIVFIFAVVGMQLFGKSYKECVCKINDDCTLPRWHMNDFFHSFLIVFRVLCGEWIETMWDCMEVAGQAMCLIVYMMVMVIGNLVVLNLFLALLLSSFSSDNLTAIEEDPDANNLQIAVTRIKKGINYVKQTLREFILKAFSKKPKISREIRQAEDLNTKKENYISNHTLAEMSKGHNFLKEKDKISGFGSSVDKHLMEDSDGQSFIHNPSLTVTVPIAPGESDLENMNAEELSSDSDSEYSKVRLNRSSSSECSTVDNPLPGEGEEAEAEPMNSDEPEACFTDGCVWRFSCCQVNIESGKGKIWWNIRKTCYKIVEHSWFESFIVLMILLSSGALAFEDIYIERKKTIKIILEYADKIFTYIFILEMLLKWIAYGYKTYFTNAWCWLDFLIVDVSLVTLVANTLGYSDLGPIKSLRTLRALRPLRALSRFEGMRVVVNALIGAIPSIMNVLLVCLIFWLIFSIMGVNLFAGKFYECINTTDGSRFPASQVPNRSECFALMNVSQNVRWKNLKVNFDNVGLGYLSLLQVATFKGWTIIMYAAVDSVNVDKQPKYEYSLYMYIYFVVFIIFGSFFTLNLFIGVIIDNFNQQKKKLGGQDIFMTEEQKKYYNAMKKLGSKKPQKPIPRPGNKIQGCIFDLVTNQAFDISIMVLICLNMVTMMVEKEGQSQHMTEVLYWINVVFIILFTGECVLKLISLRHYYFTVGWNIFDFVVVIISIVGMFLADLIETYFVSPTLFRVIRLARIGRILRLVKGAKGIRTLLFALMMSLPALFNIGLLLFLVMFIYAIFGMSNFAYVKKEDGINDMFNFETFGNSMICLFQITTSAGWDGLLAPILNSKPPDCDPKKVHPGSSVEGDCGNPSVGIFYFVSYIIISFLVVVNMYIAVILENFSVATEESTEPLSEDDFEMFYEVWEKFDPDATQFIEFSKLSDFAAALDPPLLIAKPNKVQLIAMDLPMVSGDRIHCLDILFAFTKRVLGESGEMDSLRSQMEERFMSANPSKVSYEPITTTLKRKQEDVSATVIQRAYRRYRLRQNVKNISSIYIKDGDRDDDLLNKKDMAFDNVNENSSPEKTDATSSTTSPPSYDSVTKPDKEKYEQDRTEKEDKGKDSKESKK
NaV1.3, sequence (P08104 whole entry, looked up): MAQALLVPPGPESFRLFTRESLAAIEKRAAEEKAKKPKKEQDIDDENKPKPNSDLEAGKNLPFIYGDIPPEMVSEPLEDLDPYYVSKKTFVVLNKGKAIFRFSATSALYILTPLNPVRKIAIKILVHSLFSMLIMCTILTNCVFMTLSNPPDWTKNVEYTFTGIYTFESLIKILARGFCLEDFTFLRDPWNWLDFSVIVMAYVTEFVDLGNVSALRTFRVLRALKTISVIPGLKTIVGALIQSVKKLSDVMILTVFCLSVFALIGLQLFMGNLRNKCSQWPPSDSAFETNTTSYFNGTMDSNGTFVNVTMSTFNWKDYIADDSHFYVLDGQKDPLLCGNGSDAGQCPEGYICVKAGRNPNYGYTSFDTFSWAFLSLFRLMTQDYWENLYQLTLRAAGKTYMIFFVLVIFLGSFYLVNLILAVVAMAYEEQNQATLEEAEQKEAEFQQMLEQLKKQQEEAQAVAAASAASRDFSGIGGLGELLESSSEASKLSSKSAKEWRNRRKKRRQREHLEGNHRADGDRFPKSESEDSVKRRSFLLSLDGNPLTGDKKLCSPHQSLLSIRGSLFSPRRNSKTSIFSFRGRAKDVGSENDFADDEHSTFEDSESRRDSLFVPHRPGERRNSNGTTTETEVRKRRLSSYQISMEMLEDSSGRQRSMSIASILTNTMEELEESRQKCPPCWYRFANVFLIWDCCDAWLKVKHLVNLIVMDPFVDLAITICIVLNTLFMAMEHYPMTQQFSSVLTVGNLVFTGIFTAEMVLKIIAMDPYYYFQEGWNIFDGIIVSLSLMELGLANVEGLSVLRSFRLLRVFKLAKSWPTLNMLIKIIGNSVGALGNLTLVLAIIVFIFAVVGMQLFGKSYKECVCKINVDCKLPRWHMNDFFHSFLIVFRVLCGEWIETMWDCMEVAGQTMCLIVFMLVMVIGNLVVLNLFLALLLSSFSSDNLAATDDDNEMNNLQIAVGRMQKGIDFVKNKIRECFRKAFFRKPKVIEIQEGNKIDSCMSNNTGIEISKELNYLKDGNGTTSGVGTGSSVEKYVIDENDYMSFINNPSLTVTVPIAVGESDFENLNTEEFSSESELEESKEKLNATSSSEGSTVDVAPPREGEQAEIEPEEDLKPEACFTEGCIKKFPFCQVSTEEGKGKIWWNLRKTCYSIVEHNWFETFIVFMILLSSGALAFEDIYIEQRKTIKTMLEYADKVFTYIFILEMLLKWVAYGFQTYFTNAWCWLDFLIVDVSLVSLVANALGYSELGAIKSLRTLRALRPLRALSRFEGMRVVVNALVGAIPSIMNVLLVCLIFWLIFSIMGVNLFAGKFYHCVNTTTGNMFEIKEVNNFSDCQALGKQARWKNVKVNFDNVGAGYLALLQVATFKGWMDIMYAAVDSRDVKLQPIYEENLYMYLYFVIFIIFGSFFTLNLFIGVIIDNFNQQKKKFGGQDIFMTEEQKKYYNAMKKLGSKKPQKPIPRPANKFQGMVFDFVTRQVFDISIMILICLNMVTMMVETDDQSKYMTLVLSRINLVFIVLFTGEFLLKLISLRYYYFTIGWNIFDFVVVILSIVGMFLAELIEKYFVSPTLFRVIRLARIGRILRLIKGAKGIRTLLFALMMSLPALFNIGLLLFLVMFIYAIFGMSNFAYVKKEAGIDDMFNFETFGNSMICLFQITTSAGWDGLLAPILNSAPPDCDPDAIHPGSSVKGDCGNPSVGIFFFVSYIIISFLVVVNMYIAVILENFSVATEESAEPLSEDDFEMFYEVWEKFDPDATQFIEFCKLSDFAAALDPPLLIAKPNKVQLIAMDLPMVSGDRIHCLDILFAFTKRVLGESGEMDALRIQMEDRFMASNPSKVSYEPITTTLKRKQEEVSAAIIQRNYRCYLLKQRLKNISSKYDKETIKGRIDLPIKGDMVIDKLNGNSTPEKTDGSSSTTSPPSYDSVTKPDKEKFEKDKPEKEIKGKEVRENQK

Regarding `CN1C(=O)CN=C(c2ccccc2)c2cc(Cl)ccc21` [Diazepam], in the data set with male rats, the “Inhibition of veratridine-induced pain-like behaviors (licking and paw-flinching)” value (shortened to “Inhibition”) was “ineffective”; the “Significant Reversal of Edema” value is recorded as “No”; the “Significant Reversal of Flinching” value was “No”; the “Significant Reversal of Lifting” value is recorded as “No”.

Consider `CNCC[C@H](Oc1cccc2ccccc12)c1cccs1` [Duloxetine, duloxetine], for which, in the data set on male rats, the “Inhibition” value is “inhibited somewhat”; the “Significant Reversal of Edema” value is recorded as “No”.

Consider `NCC1(CC(=O)O)CCCCC1` [Gabapentin, gabapentin], for which, in the data set on male rats, the “Inhibition” value is “not all”; the “Significant Reversal of Edema” value is reported as “No”.

Regarding `Cc1cccc(C)c1OCC(C)N` (stereo not shown) [Mexiletine, mexiletine], in the data set with male rats, the “Inhibition” value is recorded as “inhibited fully”; the “Significant Reversal of Edema” value is reported as “Yes”; the “Significant Reversal of Flinching” value is reported as “Yes”; the “Significant Reversal of Lifting” value is “Yes”. The “Lifting and flinching behaviors” value in the data set on male rats (po) is recorded as “prevented in a dose-dependent manner”. In the data set on male CD1 mice (mouse, in vivo, ip, 30 mg/kg), the “Block of effects of veratridine (total lifting time)” value is given as “blocked”, the “Prevention of lifting/licking response to deltamethrin” value is on record as “prevented the lifting/licking response” and the “Prevention of lifting/licking response to grayanotoxin III” value is “prevented the lifting/licking response”. In addition, the “Prevention of veratridine-induced flinching / lifting/licking” value in the data set on NaV1.7 [1] (mouse, in vivo) is “prevents the flinching behavior; also recorded: prevented flinching”.

For the molecule `CN1CC[C@]23c4c5ccc(O)c4O[C@H]2[C@@H](O)C=C[C@H]3[C@H]1C5` [Morphine, morphine], in the data set with male rats, the “Inhibition” value is reported as “inhibited somewhat”; the “Significant Reversal of Edema” value was “No”.

Take `COc1ccc2cc([C@H](C)C(=O)O)ccc2c1` [Naproxen, naproxen]: the “Significant Reversal of Edema” value with male rats is listed as “No”.

Take `NC1=N[C@H](O)[C@H]2[C@H]3O[C@]4(O)O[C@@H]([C@@H](O)[C@@]2(N1)[C@@H]4O)[C@]3(O)CO` [TTX, tetrodotoxin]: the half-inhibitory concentration (IC50) was 2 to 15 nM on NaV1.3; 5 nM on NaV1.4; 1 nM on NaV1.6; 4 nM on NaV1.7 [2]; > 50000 nM on NaV1.8.

As to `CC1(C)[C@H](C(=O)O[C@H](C#N)c2cccc(Oc3ccccc3)c2)[C@@H]1C=C(Br)Br` [deltamethrin], the “Lifting/licking response (total flinches) after injection” value with male CD1 mice (male CD1 mice, 10 microgram suspension dose of deltamethrin) was “produced a lifting/licking response”.

Take `CC1(O)CC23CC(O)C4(O)C(CC(O)C4(C)C)C(C)(O)C2CCC1C3O` (stereo not shown) [grayanotoxin III]: in the data set with male CD1 mice (mouse, in vivo), the “Lifting/licking response (total flinches) after injection” value is “produced a lifting/licking response”. On hNaV1.7, the “Activation of hNaV1.7” value is recorded as “activated hNaV1.7; also recorded: activated NaV1.7” and the “Voltage at which sodium currents start to activate” value is given as −95 mV.

Consider `COc1ccc(C(=O)O[C@H]2CC[C@@]3(C)[C@@H]4CC[C@@H]5C3(C[C@@]3(O)[C@@H]6CN7C[C@@H](C)CC[C@H]7[C@@](C)(O)[C@@]6(O)[C@@H](O)C[C@@]53O)O[C@]24O)cc1OC` [veratridine, 4α,9-Epoxy-3β-veratroyloxy-5β-cevan-4β,12,14,16β,17,20-hexaol], for which, in the data set with male rats, the “Pain-related behaviors (paw lifting/licking, flinching) after injection into the paw” value is “caused two separate pain-related behaviors” and the “Side effects at higher doses” value is reported as “variable neurological side effects”. Moreover, the “Lifting behavior after i.pl. injection” value with male CD1 mice (mouse, in vivo) is given as “caused equivalent lifting behavior”. Besides, the “Flinching response to paw injection” value in the data set with NaV1.7 [1] (global NaV1.7 knockout mice) was “no flinching or licking behavior; also recorded: no effect; also recorded: no response”. Further, the “Flinching response to paw injection” value in the data set on NaV1.7 [1] (wild type heterozygote mice) was “robust flinching behavior; also recorded: robust flinching response”.
